This note sets out measurements from US12174198B2, “Methods of characterizing condensate-associated characteristics of compounds and uses thereof” (Dewpoint Therapeutics, Inc., priority 2019, dated 2024).

The target of one series is T1, PGL-3 condensates (Caenorhabditis elegans, UniProt G5EBV6).
T1 sequence (G5EBV6 1-693): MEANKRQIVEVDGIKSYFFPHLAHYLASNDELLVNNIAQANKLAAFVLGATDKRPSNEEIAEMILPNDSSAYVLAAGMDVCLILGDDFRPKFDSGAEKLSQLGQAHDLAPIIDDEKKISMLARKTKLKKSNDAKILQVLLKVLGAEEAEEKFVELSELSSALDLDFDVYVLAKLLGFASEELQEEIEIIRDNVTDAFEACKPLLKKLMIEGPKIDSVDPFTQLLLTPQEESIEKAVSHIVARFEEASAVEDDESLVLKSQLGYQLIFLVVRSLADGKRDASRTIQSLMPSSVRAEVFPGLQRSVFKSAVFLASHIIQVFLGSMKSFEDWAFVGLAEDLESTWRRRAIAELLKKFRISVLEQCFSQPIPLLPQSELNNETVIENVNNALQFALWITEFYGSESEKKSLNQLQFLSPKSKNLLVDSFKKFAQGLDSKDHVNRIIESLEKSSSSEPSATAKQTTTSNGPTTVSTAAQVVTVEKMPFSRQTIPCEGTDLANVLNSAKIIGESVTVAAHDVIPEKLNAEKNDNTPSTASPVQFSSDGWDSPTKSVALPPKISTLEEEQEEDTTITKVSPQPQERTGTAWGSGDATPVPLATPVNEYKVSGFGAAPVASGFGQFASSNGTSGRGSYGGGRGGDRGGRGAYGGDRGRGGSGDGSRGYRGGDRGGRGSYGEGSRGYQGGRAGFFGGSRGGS
Kind of series: Fluorescence imaging of dye partitioning in PGL-3 condensates (I-in, I-out). It is filed as physicochemical. The conditions noted are these: for Ratio of intensity inside:outside PGL-3 Condensates Day 1 / Ratio of intensity inside:outside PGL-3 Condensates Day 2 / Ratio of intensity inside:outside PGL-3 Condensates Average: I-in:I-out; for Ratio of intensity inside:outside PGL-3 Condensates Day 1 / Ratio of intensity inside:outside PGL-3 Condensates Day 2 / Ratio of intensity inside:outside PGL-3 Condensates Average / Intensity Inside with Dye Average / Intensity Inside with Dye 1 / Intensity Inside with Dye 2 / Intensity Inside with Dye 3 / Intensity Outside with Dye Average / Intensity Outside with Dye 1 / Intensity Outside with Dye 2 / Intensity Outside with Dye 3: 10 μM dye; for Ratio of intensity inside:outside PGL-3 Condensates Average: average of two days; for Intensity Inside with Dye Average / Intensity Inside with Dye 1 / Intensity Inside with Dye 2 / Intensity Inside with Dye 3 / Intensity Inside Dye-No Dye: inside PGL-3 condensate; for Intensity Inside with Dye Average / Intensity Inside with Dye 1 / Intensity Inside with Dye 2 / Intensity Inside with Dye 3 / Intensity Outside with Dye Average / Intensity Outside with Dye 1 / Intensity Outside with Dye 2 / Intensity Outside with Dye 3: 5 μM protein; for Intensity Inside with Dye Average / Intensity Outside with Dye Average: average of three images; for Intensity Inside with Dye Average / Intensity Inside with Dye 1 / Intensity Inside with Dye 2 / Intensity Inside with Dye 3 / Intensity Inside Dye-No Dye / Intensity Outside with Dye Average / Intensity Outside with Dye 1 / Intensity Outside with Dye 2 / Intensity Outside with Dye 3 / Intensity Outside (Dye-No Dye): one day of experiments; for Intensity Inside with Dye 1 / Intensity Outside with Dye 1: image 1; for Intensity Inside with Dye 2 / Intensity Outside with Dye 2: image 2; for Intensity Inside with Dye 3 / Intensity Outside with Dye 3: image 3; for Intensity Inside Dye-No Dye / Intensity Outside (Dye-No Dye): background corrected; for Intensity Outside with Dye Average / Intensity Outside with Dye 1 / Intensity Outside with Dye 2 / Intensity Outside with Dye 3 / Intensity Outside (Dye-No Dye): outside PGL-3 condensate. The method in brief: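 Partitioning read by spinning-disk confocal imaging (60× oil, dye-specific exposure 1-1000 ms) of condensates formed from 5 μM protein (FUS-SNAP or untagged PGL-3) plus 10 μM dye, 75 mM KCl, 1% DMSO, pH 7.25. Background-subtracted intensities inside and beside one condensate per image, three images averaged.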

The target of a further series is T2, FUS-GFP condensates (Homo sapiens, UniProt P35637).
T2 sequence (P35637 1-526): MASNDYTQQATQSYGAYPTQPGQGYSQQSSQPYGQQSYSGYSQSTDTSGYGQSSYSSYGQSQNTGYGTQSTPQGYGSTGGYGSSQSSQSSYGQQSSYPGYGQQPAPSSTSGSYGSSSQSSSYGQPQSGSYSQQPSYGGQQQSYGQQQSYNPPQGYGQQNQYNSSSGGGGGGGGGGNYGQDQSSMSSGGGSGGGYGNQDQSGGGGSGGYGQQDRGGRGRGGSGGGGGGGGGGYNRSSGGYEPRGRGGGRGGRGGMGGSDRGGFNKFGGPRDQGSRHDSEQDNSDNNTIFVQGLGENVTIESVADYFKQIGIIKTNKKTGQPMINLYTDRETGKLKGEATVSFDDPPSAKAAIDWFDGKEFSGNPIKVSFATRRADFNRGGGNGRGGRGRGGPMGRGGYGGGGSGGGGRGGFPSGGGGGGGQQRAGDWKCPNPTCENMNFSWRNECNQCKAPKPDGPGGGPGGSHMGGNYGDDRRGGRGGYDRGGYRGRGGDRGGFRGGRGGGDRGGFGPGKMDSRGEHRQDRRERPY
Kind of series: Co-localization of dye and FUS in FUS-GFP condensates (confocal imaging). The class given is physicochemical. Particulars: FIG. 6; FUS-GFP channel and Rhodamine 800 channel. As for the experimental part: FUS-GFP condensates were prepared as described for FUS-SNAP in Example 2 using Dye 18.
A spinning disk confocal microscope was used to acquire images of the samples. A 60×oil high-NA objective lens was used to capture the condensate droplets. The laser power was set to 20% and the exposure times were adjusted to the fluorescence emission intensity specific for each dye. Exposure times ranged from 1-1000 ms. Appropriate filter settings were used, matching the excitation and emission spectra of the dye and GFP. Control images were taken of condensates containing FUS-GFP with no dye.

Structures can show the parent of a compound that is named as a salt.

In the case of `O=C1OC2(c3ccc(O)cc3Oc3cc(O)ccc32)c2ccccc21` [Dye 6, Fluorescein], at PGL-3 condensates, the “Ratio of intensity inside:outside PGL-3 Condensates Day 1” value came out at 1.0, the “Ratio of intensity inside:outside PGL-3 Condensates Day 2” value was found to be 1.0, the “Ratio of intensity inside:outside PGL-3 Condensates Average” value is given as 1.0 and the “Intensity Inside with Dye Average” value was found to be 4402.0. For the same compound, on PGL-3 condensates, the “Intensity Inside with Dye 1” value came to 4585.4, the “Intensity Inside with Dye 2” value came out at 4501.5, the “Intensity Inside with Dye 3” value was found to be 4119.2 and the “Intensity Inside Dye-No Dye” value is 4255.5. Besides, on PGL-3 condensates, the “Intensity Outside with Dye Average” value is given as 4166.2, the “Intensity Outside with Dye 1” value was 4395.6, the “Intensity Outside with Dye 2” value came out at 4190.8 and the “Intensity Outside with Dye 3” value is given as 3912.1. The “Intensity Outside (Dye-No Dye)” value on PGL-3 condensates is reported as 4060.8.
Consider `COC(=O)c1ccccc1-c1c2ccc(=N)cc-2oc2cc(N)ccc12.Cl` [Dye 14, Rhodamine 123], for which, on PGL-3 condensates, the “Ratio of intensity inside:outside PGL-3 Condensates Day 1” value stood at 1.1, the “Ratio of intensity inside:outside PGL-3 Condensates Day 2” value was 1.1, the “Ratio of intensity inside:outside PGL-3 Condensates Average” value was 1.1 and the “Intensity Inside with Dye Average” value is on record as 2877.7. Further, on PGL-3 condensates, the “Intensity Inside with Dye 1” value amounted to 2874.7, the “Intensity Inside with Dye 2” value came to 2858.2, the “Intensity Inside with Dye 3” value is 2900.3 and the “Intensity Inside Dye-No Dye” value was 2731.2. For the same compound, at PGL-3 condensates, the “Intensity Outside with Dye Average” value is listed as 2596.6, the “Intensity Outside with Dye 1” value came out at 2628.3, the “Intensity Outside with Dye 2” value worked out at 2616.4 and the “Intensity Outside with Dye 3” value was found to be 2545.0. Also, the “Intensity Outside (Dye-No Dye)” value at PGL-3 condensates came to 2491.2.
As to `CCN(CC)c1ccc2c(-c3ccccc3C(=O)O)c3ccc(=[N+](CC)CC)cc-3oc2c1` [Dye 16, Rhodamine B], on PGL-3 condensates, the “Ratio of intensity inside:outside PGL-3 Condensates Day 1” value worked out at 1.4, the “Ratio of intensity inside:outside PGL-3 Condensates Day 2” value is 1.3, the “Ratio of intensity inside:outside PGL-3 Condensates Average” value was 1.4 and the “Intensity Inside with Dye Average” value is recorded as 5776.5. In addition, on PGL-3 condensates, the “Intensity Inside with Dye 1” value is 5570.5, the “Intensity Inside with Dye 2” value stood at 6179.8, the “Intensity Inside with Dye 3” value is listed as 5579.3 and the “Intensity Inside Dye-No Dye” value was 5675.0. Also, on PGL-3 condensates, the “Intensity Outside with Dye Average” value is 4088.7, the “Intensity Outside with Dye 1” value was 3907.8, the “Intensity Outside with Dye 2” value was determined as 4226.6 and the “Intensity Outside with Dye 3” value was determined as 4131.5. Moreover, the “Intensity Outside (Dye-No Dye)” value on PGL-3 condensates is reported as 3987.2.
Turning to `O=C([O-])c1ccccc1C1=c2cc3c4c(c2Oc2c1cc1c5c2CCCN5CCC1)CCC[N+]=4CCC3` [Dye 17, Rhodamine 101 inner salt], at PGL-3 condensates, the “Ratio of intensity inside:outside PGL-3 Condensates Day 1” value came to 1.8, the “Ratio of intensity inside:outside PGL-3 Condensates Day 2” value stood at 1.9, the “Ratio of intensity inside:outside PGL-3 Condensates Average” value was 1.9 and the “Intensity Inside with Dye Average” value turned out to be 13067.5. Besides, at PGL-3 condensates, the “Intensity Inside with Dye 1” value stood at 12579.6, the “Intensity Inside with Dye 2” value is on record as 14061.0, the “Intensity Inside with Dye 3” value was determined as 12561.8 and the “Intensity Inside Dye-No Dye” value worked out at 12966.0. For the same compound, at PGL-3 condensates, the “Intensity Outside with Dye Average” value is reported as 7117.9, the “Intensity Outside with Dye 1” value turned out to be 7184.0, the “Intensity Outside with Dye 2” value is on record as 7157.1 and the “Intensity Outside with Dye 3” value is 7012.6. The “Intensity Outside (Dye-No Dye)” value at PGL-3 condensates amounted to 7016.4.
For `N#CC1=c2cc3c4c(c2Oc2c1cc1c5c2CCCN5CCC1)CCC[N+]=4CCC3` [Dye 18, Rhodamine 800], on PGL-3 condensates, the “Ratio of intensity inside:outside PGL-3 Condensates Day 1” value stood at 3.4, the “Ratio of intensity inside:outside PGL-3 Condensates Day 2” value is listed as 2.4, the “Ratio of intensity inside:outside PGL-3 Condensates Average” value is recorded as 2.9 and the “Intensity Inside with Dye Average” value was determined as 730.8. At PGL-3 condensates, the “Intensity Inside with Dye 1” value worked out at 714.9, the “Intensity Inside with Dye 2” value is on record as 700.1, the “Intensity Inside with Dye 3” value is on record as 777.4 and the “Intensity Inside Dye-No Dye” value is given as 604.6. Further, at PGL-3 condensates, the “Intensity Outside with Dye Average” value was determined as 309.4, the “Intensity Outside with Dye 1” value is recorded as 301.3, the “Intensity Outside with Dye 2” value was found to be 294.6 and the “Intensity Outside with Dye 3” value worked out at 332.2. Moreover, the “Intensity Outside (Dye-No Dye)” value at PGL-3 condensates amounted to 178.7. Further, at FUS-GFP condensates, the “Co-localization of dye with GFP-labeled FUS in condensates” value is on record as “co-localized in the condensates”.
